According to patent publication US8309586B2, “Glucokinase activators and pharmaceutical compositions containing the same as an active ingredient” (LG Life Sciences Ltd., priority 2007, dated 2012):

What was measured:
male C57BL/6 mice = experiment: Blood glucose lowering abilities after single oral administration in male C57BL/6 mouse; type: in vivo; details: 30 mg/kg single oral dose, fed ad libitum
Method: The glucokinase activators according to the present invention were orally administered in a single dose in the amount of 30 mg/kg body weight to male C57BL/6 mice for 24 h. The media were selected depending on their solubilities from distilled water, pH 1.2 HCl buffer solution, 0.5% methyl cellulose distilled water solution, 10% Gelucire/pH 1.2 HCl buffer solution (1/1). The glucokinase activators were dissolved in the selected media to the medium volume of 0.1 ml/10 g body weight on the basis of the body weight measured on the day of experiment.
Blood glucose was measured by cutting the tail vein before 1 h (time=−1) from the measurement of blood glucose, collecting blood from the tail vein at immediately before the administration of the glucokinase activator (time=0), and at 1, 2, 4, 8, 12, 24 h after administration, loading on the automatic glucometer (Accu-Chek® Active, Roche, USA), dropping 5 μl of the blood to a yellow pad of the Accu-Chek® Active glucose strip, and recording the measured value.
Mice involved in the experiment were divided into groups (n=10, in the case of media group n=4) on one day before the experiment so that each group has uniform average and standard deviation for blood glucose after 4 hour fasting. Mice were fed ad libitum.
The blood glucose lowering abilities in % of the representative compounds with respect to the 100% of media control were shown in the following Table 2.

[1] = test system: Glucokinase known as hexokinase IV (human GK isoform 1, pancreas form and human GK isoform 2, liver form); experiment: Glucokinase enzymatic activity assay (G6PDH-coupled, NADH absorbance at 340 nm); type: biochemical; details: 5 mM glucose, 1 mM ATP, 37 nM GK, 10 min at room temperature
How it was run: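 His-tagged human GK isoform 1 (pancreas) or 2 (liver), E. coli-expressed and Ni-purified, 37 nM, with 5 mM glucose, 1 mM ATP, 1 mM NAD and G6PDH in 25 mM Hepes/KCl, 2 mM MgCl2, 1 mM DTT. Ran 10 min at room temperature, read as NADH at 340 nm. AC1.5 is the compound concentration giving 1.5-fold activity.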

Compound	AC1.5 (the compound concentration at which the enzymatic activity is increased by 1.5 times) [1] [nM]	Hypoglycemic ability (% medium): blood glucose AUC for 24 h with respect to 100% of media control (male C57BL/6 mice; medium: distilled water) [%]	Hypoglycemic ability (% medium): blood glucose AUC for 24 h with respect to 100% of media control (male C57BL/6 mice; medium: 0.5% methyl cellulose distilled water solution) [%]
O=C(O)C[C@@H]1CSC(c2cc3cccc(NC4CCCC4)c3[nH]2)=N1 [Example 42, [(R)-2-(7-cyclopentylamino-1H-indol-2-yl)-4,5-dihydro-thiazol-4-yl]acetic acid]	–	57	–
O=C(O)CC[C@@H]1CSC(c2cc3cccc(NC4CCCC4)c3[nH]2)=N1 [Example 164, 3-[(R)-2-(7-cyclopentylamino-1H-indol-2-yl)-4,5-dihydro-thiazol-4-yl]-propionic acid]	25	73	–
O=C(CO)N1CCN(CC[C@@H]2CSC(c3cc4cc(Cl)cc(NC5CCCC5)c4[nH]3)=N2)CC1 [Example 99, 1-(4-{2-[(R)-2-(5-chloro-7-cyclopentylamino-1H-indol-2-yl)-4,5-dihydro-thiazol-4-yl]-ethyl}-piperazin-1-yl)-2-hydroxy-ethanone]	5	72	–
Cc1cc(NC2CCCC2)c2[nH]c(C3=N[C@H](CCC(=O)O)CS3)cc2c1 [Example 158, 3-[(R)-2-(7-cyclopentylamino-5-methyl-1H-indol-2-yl)-4,5-dihydro-thiazol-4-yl]-propionic acid]	16	66	–
O=C(O)C[C@@H]1CSC(c2cc3cc(F)cc(NC4CCCC4)c3[nH]2)=N1 [Example 37, [(R)-2-(7-cyclopentylamino-5-fluoro-1H-indol-2-yl)-4,5-dihydro-thiazol-4-yl]acetic acid]	–	67	–
Clc1cc(NC2CCCC2)c2[nH]c(C3=N[C@H](CCN4CCNCC4)CS3)cc2c1 [Example 96, {5-chloro-2-[(R)-4-(2-piperazin-1-yl-ethyl)-4,5-dihydro-thiazol-2-yl]-1H-indol-7-yl}-cyclopentyl-amine]	5	81	–
O=C(O)C[C@@H]1CSC(c2cc3cc(Br)cc(NC4CCCC4)c3[nH]2)=N1 [Example 33, [(R)-2-(5-bromo-7-cyclopentylamino-1H-indol-2-yl)-4,5-dihydro-thiazol-4-yl]acetic acid]	–	81	–
O=C(O)C[C@@H]1CSC(c2cc3cccc(Oc4ccccc4)c3[nH]2)=N1 [Example 174, [(R)-2-(7-phenoxy-1H-indol-2-yl)-4,5-dihydro-thiazol-4-yl]-acetic acid]	–	51	–
CCOC(=O)CC[C@@H]1CSC(c2cc3cc(Cl)cc(NC4CCCC4)c3[nH]2)=N1 [Example 148, 3-[(R)-2-(5-chloro-7-cyclopentylamino-1H-indol-2-yl)-4,5-dihydro-thiazol-4-yl]propionic acid ethyl ester]	12	–	–
CN1CCN(C(=O)C[C@@H]2CSC(c3cc4cc(Cl)cc(NC5CCCC5)c4[nH]3)=N2)CC1 [Example 78, 2-[(R)-2-(5-chloro-7-cyclopentylamino-1H-indol-2-yl)-4,5-dihydro-thiazol-4-yl]-1-(4-methyl-piperazin-1-yl)-ethanone]	25	–	–
CN(C)CC[C@@H]1CSC(c2cc3cc(F)cc(NC4CCCC4)c3[nH]2)=N1 [Example 127, cyclopentyl-{2-[(R)-4-(2-dimethylamino-ethyl)-4,5-dihydro-thiazol-2-yl]-5-fluoro-1H-indol-7-yl}-amine]	21	–	–

Continued, in another order:

AC1.5 (the compound concentration at which the enzymatic activity is increased by 1.5 times) [1] [nM]	Compound	Hypoglycemic ability (% medium): blood glucose AUC for 24 h with respect to 100% of media control (male C57BL/6 mice; medium: distilled water) [%]	Hypoglycemic ability (% medium): blood glucose AUC for 24 h with respect to 100% of media control (male C57BL/6 mice; medium: 0.5% methyl cellulose distilled water solution) [%]
18	O=C(O)C[C@@H]1CSC(c2cc3cc(Oc4ccccc4)cc(NC4CCCC4)c3[nH]2)=N1 [Example 54, [(R)-2-(7-cyclopentylamino-5-phenoxy-1H-indol-2-yl)-4,5-dihydro-thiazol-4-yl]-acetic acid]	52	–
28	CCOc1cc(NC2CCCC2)c2[nH]c(C3=N[C@H](CCC(=O)O)CS3)cc2c1 [Example 167, 3-[(R)-2-(7-cyclopentylamino-5-ethoxy-1H-indol-2-yl)-4,5-dihydro-thiazol-4-yl]-propionic acid]	64	–
17	O=C(O)CC[C@@H]1CSC(c2cc3cc(Oc4ccccc4)cc(NC4CCCC4)c3[nH]2)=N1 [Example 159, 3-[(R)-2-(7-cyclopentylamino-5-phenoxy-1H-indol-2-yl)-4,5-dihydro-thiazol-4-yl]-propionic acid]	63	–
18	CCOC(=O)C[C@@H]1CSC(c2cc3cc(F)cc(NC4CCCC4)c3[nH]2)=N1 [Example 38, [(R)-2-(7-cyclopentylamino-5-fluoro-1H-indol-2-yl)-4,5-dihydro-thiazol-4-yl]acetic acid ethyl ester]	–	71
20	CCOc1cc(NC2CCCC2)c2[nH]c(C3=N[C@H](CC(=O)O)CS3)cc2c1 [Example 52, [(R)-2-(7-cyclopentylamino-5-ethoxy-1H-indol-2-yl)-4,5-dihydro-thiazol-4-yl]acetic acid]	62	–
4	O=C(O)C[C@@H]1CSC(c2cc3cc(Cl)cc(NC4CCCC4)c3[nH]2)=N1 [Example 27, [(R)-2-(5-chloro-7-cyclopentylamino-1H-indol-2-yl)-4,5-dihydro-thiazol-4-yl]acetic acid]	75	–
11	Cc1cc(NC2CCCC2)c2[nH]c(C3=N[C@H](CC(=O)O)CS3)cc2c1 [Example 61, [(R)-2-(7-cyclopentylamino-5-methyl-1H-indol-2-yl)-4,5-dihydro-thiazol-4-yl]-acetic acid]	54	–
97	CCCOc1cc(NC2CCCC2)c2[nH]c(C3=N[C@H](CC(=O)O)CS3)cc2c1 [Example 53, [(R)-2-(7-cyclopentylamino-5-propoxy-1H-indol-2-yl)-4,5-dihydro-thiazol-4-yl]-acetic acid]	–	–
17	COC(=O)C[C@@H]1CSC(c2cc3cc(Oc4cccnc4)cc(NC4CCCC4)c3[nH]2)=N1 [Example 56, {(R)-2-[7-cyclopentylamino-5-(pyridin-3-yloxy)-1H-indol-2-yl]-4,5-dihydro-thiazol-4-yl}-acetic acid methyl ester]	–	–
28	O=C(O)C[C@@H]1CSC(c2cc3cc(Oc4cccnc4)cc(NC4CCOCC4)c3[nH]2)=N1 [Example 59, {(R)-2-[5-(pyridin-3-yloxy)-7-(tetrahydro-pyran-4-ylamino)-1H-indol-2-yl]-4,5-dihydro-thiazol-4-yl}-acetic acid]	–	–
